From patent US20210069295A1, “GALECTINS CONTROL MTOR IN RESPONSE TO ENDOMEMBRANE DAMAGE AND PROVIDE A MECHANISM AND TARGET FOR THE TREATMENT OF AUTOPHAGY-RELATED DISEASES” (STC. UNM, priority 2017, published 2021)
One block for each compound: values may come before it.

Tests used:
[1] = test system: Gal8 and Gal9; assay: Galectin puncta formation by high-content microscopy in HeLa cells; assay type: cell-based; conditions: HeLa cells overexpressing GFP-Gal8 or GFP-Gal9, 100 μM, 1 h full medium
Description: (A) Analysis of the puncta formation of galectins in response to GPN. HeLa cells overexpressing YFP-fused with the indicated galectins were treated with 100 μM GPN or without (Ctrl) in full medium for 1 h and galectin puncta were quantified by HC. […] White masks, algorithm defined cell boundaries (primary objects); green masks, computer-identified galectins puncta (target objects). Data, means±SEM, n≥3 independent experiments (500 primary objects counted per well; ≥5 wells/sample per each experiment); *p<0.05, **p<0.01, † p≥0.05, ANOVA. (B) Immunoprecipitation analysis of the interactions between galectins and mTOR or RagA GTPase. HEK293T cells overexpressing FLAG-tagged galectins were subjected to anti-FLAG immunoprecipitation followed by immunoblotting for endogenous mTOR or RagA. (C) Immunoprecipitation analysis of interactions between Gal8 and mTOR protein complexes in response to GPN treatment. […] Biotinylated proteins from HEK293T cell expressing APEX2-vector or APEX2-Gal8, after GPN and biotin phenol (BP) treatment were affinity-enriched by binding to streptavidin-beads, and samples were analyzed by immunoblotting analysis for endogenous RagA, p14, mTOR or Raptor. […]
(A) HC analysis of the puncta of galectins in response to chloroquine, Bafilomycin A1 and GPN. HeLa cells overexpressing GFP-Gal8 or GFP-Gal9 were treated with 100 μM chloroquine (CQ), […] (BAF) or 100 μM GPN in full medium for 1 h, and the puncta of GFP-Gal8 or GFP-Gal9 were quantified by HC. […] Data, means±SEM, n≥3 independent experiments (500 primary objects counted per well; ≥5 wells/sample per each experiment), † p≥0.05, **p<0.01, ANOVA. […] HeLa cells expressing GFP-Gal8 were treated with 100 μM GPN in full medium for 1 h, and the overlap between GFP-Gal8 and LAMP2 were quantified by HC. […] Data, means±SEM, n≥3 independent experiments (500 primary objects counted per well; ≥5 wells/sample per each experiment), **p<0.01, ANOVA. […]

[2] = test system: AMPK; assay: AMPK activation by immunoblotting of phosphorylated AMPKα, ACC and ULK1 in HEK293A cells; assay type: cell-based; conditions: Gal9 KO HEK293A, 1 μM oligomycin 1 h
[3] = target: T1, TAK1 (Homo sapiens, UniProt O43318); assay: Co-IP of FLAG-tagged galectins with GFP-tagged TAK1 in HEK293T cells; assay type: binding; conditions: HEK293T overexpressing FLAG-tagged galectins and GFP-TAK1
T1 sequence (O43318 1-606): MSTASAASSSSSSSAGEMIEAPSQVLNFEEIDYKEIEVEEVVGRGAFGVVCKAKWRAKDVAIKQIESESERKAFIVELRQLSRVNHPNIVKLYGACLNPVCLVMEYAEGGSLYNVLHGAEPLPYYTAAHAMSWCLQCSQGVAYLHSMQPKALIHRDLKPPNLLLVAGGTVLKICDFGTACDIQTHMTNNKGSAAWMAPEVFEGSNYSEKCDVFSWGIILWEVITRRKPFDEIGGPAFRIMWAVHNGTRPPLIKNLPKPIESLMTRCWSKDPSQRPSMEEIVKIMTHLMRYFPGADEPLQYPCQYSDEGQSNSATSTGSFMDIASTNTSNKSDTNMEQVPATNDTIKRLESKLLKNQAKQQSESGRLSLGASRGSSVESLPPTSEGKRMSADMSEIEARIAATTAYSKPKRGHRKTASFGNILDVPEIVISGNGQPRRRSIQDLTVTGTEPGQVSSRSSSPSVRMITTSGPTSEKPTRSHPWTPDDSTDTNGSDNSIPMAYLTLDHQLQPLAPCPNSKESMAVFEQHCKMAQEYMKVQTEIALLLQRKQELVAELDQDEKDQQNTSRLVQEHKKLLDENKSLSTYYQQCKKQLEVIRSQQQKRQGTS
Description: (A) Analysis of the activation of AMPK in wildtype (WT) and the complementation of Gal9 in Gal9-knockout (Gal9KO) HEK293A cells treated with 100 μM GPN in full medium for 1 h. AMPK activity was monitored by immunoblotting analysis of AMPKα (T172) and acetyl-CoA carboxylase (ACC, S79) phosphorylation (phosphorylated AMPKα (T172) and ACC (S79) relative to total AMPKα and ACC respectively). (B) HEK293T cells transfected with scrambled siRNA (Scr) or Gal9 siRNA (Gal9KD) were treated with 2 mM LLOMe in full medium for 1 h, and the cell lysates were analyzed for phosphorylation of indicated proteins. Data, means±SEM, n=3, *p<0.05, ANOVA. (C) HEK293T cells overexpressing FLAG-Gal9 were treated with 2 mM LLOMe in full medium for 1 h. Cell lysates were analyzed for the indicated proteins. Data, means±SEM, n=3, *p<0.05, ANOVA. (D) Immunoprecipitation analysis of the interactions between galectins and TAK1. HEK293T cells overexpressing FLAG-tagged galectins and GFP-tagged TAK1 were subjected to anti-FLAG immunoprecipitation followed by immunoblotting for GFP-tagged TAK1. (E) Schematic diagram of Gal9 domains and deletion constructs. (F) HEK293T cells overexpressing FLAG-tagged full-length or truncated Gal9 and GFPAMPK were subjected to anti-FLAG immunoprecipitation, followed by immunoblotting for GFP-AMPK. (G) HEK293T cells overexpressing FLAG-tagged full-length or truncated Gal9 and GFP-TAK1 were subjected to anti-FLAG immunoprecipitation, followed by immunoblotting for GFP-TAK1. (H) Analysis of the activation of AMPK in HEK293T cells subjected to knockdowns as indicated treated with 100 μM GPN in full medium for 1 h. AMPK activity was monitored by immunoblotting analysis of AMPKα (T172) and acetyl-CoA carboxylase (ACC, S79) phosphorylation (phosphorylated AMPKα (T172) and ACC (S79) relative to total AMPKα and ACC respectively). Cells transfected with scrambled siRNA were as control (Scr). […]

[4] = test system: mTOR, Raptor, RagA, p14; assay: APEX2 proximity biotinylation with streptavidin enrichment and immunoblotting in HEK293T cells; assay type: cell-based; conditions: APEX2-galectin fusions
Description: (A) Analysis of the puncta formation of galectins in response to GPN. HeLa cells overexpressing YFP-fused with the indicated galectins were treated with 100 μM GPN or without (Ctrl) in full medium for 1 h and galectin puncta were quantified by HC. […] White masks, algorithm defined cell boundaries (primary objects); green masks, computer-identified galectins puncta (target objects). Data, means±SEM, n≥3 independent experiments (500 primary objects counted per well; ≥5 wells/sample per each experiment); *p<0.05, **p<0.01, † p≥0.05, ANOVA. (B) Immunoprecipitation analysis of the interactions between galectins and mTOR or RagA GTPase. HEK293T cells overexpressing FLAG-tagged galectins were subjected to anti-FLAG immunoprecipitation followed by immunoblotting for endogenous mTOR or RagA. (C) Immunoprecipitation analysis of interactions between Gal8 and mTOR protein complexes in response to GPN treatment. THP-1 cells not treated or treated with 100 μM GPN in full medium for 1 h were subjected to immunoprecipitation with anti-Gal8 antibody, followed by immunoblotting for endogenous RagA, p14, mTOR or Raptor. (D) Analysis of the proximity of Gal8 to mTOR and other proteins in mTOR complexes in response to GPN. Biotinylated proteins from HEK293T cell expressing APEX2-vector or APEX2-Gal8, after GPN and biotin phenol (BP) treatment were affinity-enriched by binding to streptavidin-beads, and samples were analyzed by immunoblotting analysis for endogenous RagA, p14, mTOR or Raptor. Data, means±SEM, (n=3), **p<0.01, ANOVA. (E) Immunoprecipitation analysis of the interactions between Gal8 and RagA GTPase and its mutants. Lysates of HEK293T cells overexpressing FLAG-Gal8 and HA-tagged RagA proteins (RagAWT, RagAT21L or RagAQ66L) were subjected to anti-FLAG immunoprecipitation, followed by immunoblotting for HA-tagged RagA proteins. (F) Immunoprecipitation analysis of the interactions between Gal8 and RagC GTPase and its mutants. HEK293T cells overexpressing FLAG-Gal8 and HA-tagged RagC proteins (RagCWT, RagCS75L or RagCQ120L) lysates were subjected to anti-FLAG immunoprecipitation, followed by immunoblotting for HA-tagged RagC proteins.
HEK293T cells transfected with pJJiaDEST-APEX2 or pJJiaDEST-APEX2-Gal8 were incubated with 100 μM GPN (Cayman Chemicals) in full medium for 1 h (confluence of cells remained at 70-80%). Cells were next incubated in 500 μM biotin-phenol (AdipoGen) in full medium for the last 30 min of GPN incubation. A 1 min pulse with 1 mM H2O2 at room temperature was stopped with quenching buffer (10 mM sodium ascorbate, 10 mM sodium azide and 5 mM Trolox in Dulbecco's Phosphate Buffered Saline (DPBS)). All samples were washed twice with quenching buffer, and twice with DPBS.
For immunoblotting analysis, cell pellets were lysed with 500 μL ice-cold RIPA lysis buffer (ThermoFisher Scientific) with protease inhibitor cocktail (Roche), 1 mM PMSF (sigma), 10 mM sodium ascorbate, 10 mM sodium azide and 5 mM Trolox, gently pipetted and then the incubated for 30 min. The lysates were clarified by centrifugation at 13,000 rpm for 5 min, followed by measuring protein concentrations using a Pierce BCA Protein Assay kit, with freshly made bovine serum albumin (BSA) solutions as standards. Streptavidin-coated magnetic beads (ThermoFisher Scientific) were washed with RIPA lysis buffer. 3 mg of each sample was mixed with 100 μL of streptavidin beads. […] 15 μL of each sample was separated by SDS-PAGE and analyzed by Western blot using indicated antibodies.

[5] = test system: AMPKα; assay: Co-IP of FLAG-tagged galectins with endogenous AMPKα in HEK293T cells; assay type: binding; conditions: HEK293T overexpressing FLAG-tagged galectins

Compound: CO/C1=C\C(C)=C\[C@@H](C)[C@@H](O)[C@@H](C)C/C(C)=C/C=C/[C@H](OC)[C@@H]([C@@H](C)[C@@H](O)[C@H](C)[C@@]2(O)C[C@@H](O)[C@H](C)[C@@H](C(C)C)O2)OC1=O [Bafilomycin A 1, Bafilomycin A1]
Gal8 and Gal9 puncta formation [1]: not upon treatment

Compound: CCN(CC)CCCC(C)Nc1ccnc2cc(Cl)ccc12 (stereo not drawn) [chloroquine]
Gal8 and Gal9 puncta formation [1]: not upon treatment

Compound: CC[C@H]1/C=C/C=C/C[C@@H](C)[C@H](O)[C@@](C)(O)C(=O)[C@@H](C)[C@H](O)[C@@H](C)C(=O)[C@@H](C)[C@H](O)[C@@H](C)/C=C/C(=O)O[C@@H]2[C@H](C)[C@H](CC1)O[C@]1(CC[C@H](C)[C@H](C[C@@H](C)O)O1)[C@H]2C [oligomycin]
AMPK phosphorylation in Gal9 KO cells [2]: increased AMPK phosphorylation

interaction with TAK1 [3]: not
Compound: Gal3: cytosolic lectin, galectin-3, used as comparator
mTOR, Raptor and RagA found in the proximity of the galectin [4]: not in the proximity
AMPKα in complexes (co-IP) with galectin [5]: not detected
